Experimental data from patent US20220323406A1, “METHODS AND COMPOSITIONS FOR DIFFERENTIATING STEM CELLS” (Massachusetts Institute of Technology, priority 2019, published 2022).
Where a name gives a salt, the structure may show the parent alone.

Experiments:
ENR+CD organoids = assay: Primary screen: ATP (CellTiter-Glo 3D, CTG) cell number/viability, 2.5-D 384-well ENR+CD organoids; settings: primary screen; for Z.CTG: standard z score;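 on all read-outs here: compounds given at plating and again on day 3 over a 6-day differentiation from ENR+CV stem-cell-enriched precursors, ATP measured on day 6, plate median as control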
[1] = system: ENR+CD organoids (ISC to Paneth cell differentiation); assay: Primary screen: CCh-stimulated lysozyme secretion LYZ.S, 2.5-D 384-well ENR+CD organoid differentiation; format: cell-based, mouse; settings: primary screen
Description: (§1) High-throughput screening.

[2] = system: ENR+CD organoids (ISC to Paneth cell differentiation); assay: Primary screen: basal (non-stimulated) lysozyme secretion LYZ.NS, 2.5-D 384-well ENR+CD organoid differentiation; format: cell-based, mouse
Description: as §1

[3] = dose 0.08 uM, FC relative to plate median
[4] = dose 0.40 uM, FC relative to plate median
[5] = dose 2.00 uM, FC relative to plate median
[6] = dose 10.00 uM, FC relative to plate median
[7] = primary screen, dose 0.08 uM, standard z score
[8] = primary screen, dose 0.40 uM, standard z score
[9] = primary screen, dose 2.00 uM, standard z score
[10] = primary screen, dose 10.00 uM, standard z score
[11] = dose 0.08 uM, FC vs plate median
[12] = dose 0.40 uM, FC vs plate median
[13] = dose 2.00 uM, FC vs plate median
[14] = dose 10.00 uM, FC vs plate median

`Cc1cc2c(cc1CC(=O)c1sccc1S(=O)(=O)Nc1onc(C)c1Cl)OCO2` [Sitaxentan sodium] was tested, and the Dose.FC.CTG (ENR+CD organoids; [3]) was 0.095 log2 fold change, the Dose.FC.CTG (ENR+CD organoids; [4]) was −0.200 log2 fold change and the Dose.FC.CTG (ENR+CD organoids; [5]) was −0.096 log2 fold change. The Dose.FC.CTG (ENR+CD organoids; [6]) was −0.100 log2 fold change, the Dose.FC.LYZ.S [1, 3] was −0.017 log2 fold change and the Dose.FC.LYZ.S [1, 4] was −0.028 log2 fold change. It also gave a Dose.FC.LYZ.S [1, 5] of 0.136 log2 fold change, a Dose.FC.LYZ.S [1, 6] of −0.047 log2 fold change and a Dose.FC.LYZ.NS ([2]; primary screen, dose 0.08 uM, FC relative to plate median) of 0.094 log2 fold change. It also gave a Z.LYZ.NS [2, 7] of 0.816, a Dose.FC.LYZ.NS ([2]; primary screen, dose 0.40 uM, FC relative to plate median) of −0.052 log2 fold change and a Z.LYZ.NS [2, 8] of −0.455. It also gave a Dose.FC.LYZ.NS ([2]; primary screen, dose 2.00 uM, FC relative to plate median) of 0.090 log2 fold change, a Z.LYZ.NS [2, 9] of 0.782 and a Dose.FC.LYZ.NS ([2]; primary screen, dose 10.00 uM, FC relative to plate median) of −0.038 log2 fold change. The Z.LYZ.NS [2, 10] was −0.332.

In the case of `CCc1c2c(nc3ccc(OC(=O)N4CCC(N5CCCCC5)CC4)cc13)-c1cc3c(c(=O)n1C2)COC(=O)[C@]3(O)CC` [Irinotecan HCl Trihydrate], the “Dose.FC.CTG (log2 fold change)” value (ENR+CD organoids; dose 0.08 uM) is reported as −0.083, the “Dose.FC.CTG (log2 fold change)” value (ENR+CD organoids; dose 0.40 uM) is reported as −0.205 and the “Dose.FC.CTG (log2 fold change)” value (ENR+CD organoids; dose 2.00 uM) is reported as −0.317. The “Dose.FC.CTG (log2 fold change)” value (ENR+CD organoids; dose 10.00 uM) was −0.588, the “Dose.FC.LYZ.S (log2 fold change)” value ([1]; dose 0.08 uM) was −0.040 and the “Dose.FC.LYZ.S (log2 fold change)” value ([1]; dose 0.40 uM) was −0.158. For the same molecule, the “Dose.FC.LYZ.S (log2 fold change)” value ([1]; dose 2.00 uM) was −0.293, the “Dose.FC.LYZ.S (log2 fold change)” value ([1]; dose 10.00 uM) was −0.367 and the “Dose.FC.LYZ.NS (log2 fold change)” value ([2]; primary screen, dose 0.08 uM) was −0.019. The “Z.LYZ.NS (standard z score)” value ([2]; primary screen, dose 0.08 uM) was −0.162, the “Dose.FC.LYZ.NS (log2 fold change)” value ([2]; primary screen, dose 0.40 uM) was −0.092 and the “Z.LYZ.NS (standard z score)” value ([2]; primary screen, dose 0.40 uM) was −0.805. For the same molecule, the “Dose.FC.LYZ.NS (log2 fold change)” value ([2]; primary screen, dose 2.00 uM) was −0.221, the “Z.LYZ.NS (standard z score)” value ([2]; primary screen, dose 2.00 uM) was −1.925 and the “Dose.FC.LYZ.NS (log2 fold change)” value ([2]; primary screen, dose 10.00 uM) was −0.272. For the same molecule, the “Z.LYZ.NS (standard z score)” value ([2]; primary screen, dose 10.00 uM) was −2.368.

In the case of `O=C(NCCN1CCOCC1)c1ccc(Cl)cc1` [Moclobemide (Ro 111163)], the Z.CTG (ENR+CD organoids; dose 0.08 uM) is reported as 0.348, the Z.CTG (ENR+CD organoids; dose 0.40 uM) is reported as 0.252 and the Z.CTG (ENR+CD organoids; dose 2.00 uM) is reported as 0.276. The Z.CTG (ENR+CD organoids; dose 10.00 uM) was 0.100, the Dose.FC.CTG (ENR+CD organoids; [11]) was 0.146 log2 fold change and the Dose.FC.CTG (ENR+CD organoids; [12]) was 0.106 log2 fold change. It also gave a Dose.FC.CTG (ENR+CD organoids; [13]) of 0.116 log2 fold change, a Dose.FC.CTG (ENR+CD organoids; [14]) of 0.042 log2 fold change and a Dose.FC.LYZ.S [1, 11] of 0.147 log2 fold change. It also gave a Dose.FC.LYZ.S [1, 12] of 0.094 log2 fold change, a Dose.FC.LYZ.S [1, 13] of 0.012 log2 fold change and a Dose.FC.LYZ.S [1, 14] of 0.019 log2 fold change. For the same molecule, the Z.LYZ.NS [2, 7] was 0.654, the Z.LYZ.NS [2, 8] was 1.055 and the Z.LYZ.NS [2, 9] was 0.011. The Z.LYZ.NS [2, 10] was −0.243, the Dose.FC.LYZ.NS ([2]; primary screen; dose 0.08 uM; FC vs plate median) was 0.075 log2 fold change and the Dose.FC.LYZ.NS ([2]; primary screen; dose 0.40 uM; FC vs plate median) was 0.121 log2 fold change. The Dose.FC.LYZ.NS ([2]; primary screen; dose 2.00 uM; FC vs plate median) was 0.001 log2 fold change and the Dose.FC.LYZ.NS ([2]; primary screen; dose 10.00 uM; FC vs plate median) was −0.028 log2 fold change.

With `CCN(c1cc(-c2ccc(CN3CCOCC3)cc2)cc(C(=O)NCc2c(C)cc(C)[nH]c2=O)c1C)C1CCOCC1` [EPZ-6438] the Dose.FC.CTG (ENR+CD organoids; dose 0.08 uM) was 0.045 log2 fold change, the Dose.FC.CTG (ENR+CD organoids; dose 0.40 uM) was 0.075 log2 fold change and the Dose.FC.CTG (ENR+CD organoids; dose 2.00 uM) was −0.068 log2 fold change. It also gave a Dose.FC.CTG (ENR+CD organoids; dose 10.00 uM) of 0.336 log2 fold change, a Dose.FC.LYZ.S ([1]; dose 0.08 uM) of 0.003 log2 fold change and a Dose.FC.LYZ.S ([1]; dose 0.40 uM) of −0.023 log2 fold change. For the same molecule, the Dose.FC.LYZ.S ([1]; dose 2.00 uM) was −0.011 log2 fold change, the Dose.FC.LYZ.S ([1]; dose 10.00 uM) was 0.046 log2 fold change and the Dose.FC.LYZ.NS ([2]; primary screen, dose 0.08 uM) was 0.012 log2 fold change. For the same molecule, the Dose.FC.LYZ.NS ([2]; primary screen, dose 0.40 uM) was −0.023 log2 fold change, the Dose.FC.LYZ.NS ([2]; primary screen, dose 2.00 uM) was 0.015 log2 fold change and the Dose.FC.LYZ.NS ([2]; primary screen, dose 10.00 uM) was 0.062 log2 fold change. It also gave a Z.LYZ.NS ([2]; primary screen, standard z score, dose 0.08 uM) of 0.108, a Z.LYZ.NS ([2]; primary screen, standard z score, dose 0.40 uM) of −0.203 and a Z.LYZ.NS ([2]; primary screen, standard z score, dose 2.00 uM) of 0.130. It also gave a Z.LYZ.NS ([2]; primary screen, standard z score, dose 10.00 uM) of 0.538.

With `CS(=O)(=O)c1ccc(-c2cnc(N)c(C(=O)Nc3ccccc3)n2)cc1` [VE-821] the Dose.FC.CTG (ENR+CD organoids; dose 0.08 uM) was 0.213 log2 fold change, the Dose.FC.CTG (ENR+CD organoids; dose 0.40 uM) was 0.130 log2 fold change and the Dose.FC.CTG (ENR+CD organoids; dose 2.00 uM) was −0.137 log2 fold change. The Dose.FC.CTG (ENR+CD organoids; dose 10.00 uM) was −0.840 log2 fold change, the Dose.FC.LYZ.S ([1]; dose 0.08 uM) was 0.130 log2 fold change and the Dose.FC.LYZ.S ([1]; dose 0.40 uM) was 0.089 log2 fold change. For the same molecule, the Dose.FC.LYZ.S ([1]; dose 2.00 uM) was −0.004 log2 fold change, the Dose.FC.LYZ.S ([1]; dose 10.00 uM) was −0.429 log2 fold change and the Dose.FC.LYZ.NS ([2]; primary screen, dose 0.08 uM) was 0.106 log2 fold change. For the same molecule, the “Z.LYZ.NS (standard z score)” value ([2]; primary screen, dose 0.08 uM) was 0.924, the Dose.FC.LYZ.NS ([2]; primary screen, dose 0.40 uM) was 0.063 log2 fold change and the “Z.LYZ.NS (standard z score)” value ([2]; primary screen, dose 0.40 uM) was 0.544. For the same molecule, the Dose.FC.LYZ.NS ([2]; primary screen, dose 2.00 uM) was 0.103 log2 fold change, the “Z.LYZ.NS (standard z score)” value ([2]; primary screen, dose 2.00 uM) was 0.901 and the Dose.FC.LYZ.NS ([2]; primary screen, dose 10.00 uM) was −0.284 log2 fold change. For the same molecule, the “Z.LYZ.NS (standard z score)” value ([2]; primary screen, dose 10.00 uM) was −2.475.
